# Where two headings read alike, the source gives them in different places.
# Columns and labels:
# locomotor activity = experiment: Mouse Screen (decrease in locomotor activity); type: in vivo; conditions: Mus musculus, po, read-out: Screen (mouse) MED
# Excerpt: (§1) Results given in: mg/kg po/mouse
# Mouse Screen: The minimal effective dose (MED) is the lowest oral dose producing an obvious decrease in locomotor activity, using observational techniques. Groups of 3 mice are given decreasing oral doses at 0.5 log intervals (300, 100, 30 . . . etc.) until no behavioral effects are evident. Decrease of locomotor activity is indicative of general central nervous system depressant activity.
# [1] = tested on: amphetamine hyperactivity; experiment: Mouse Anti-Amphetamine Activity (A.A.); type: in vivo; conditions: po, read-out: A.A. (mouse) ED50
# Method: as §1
# Mouse Anti-Amphetamine Activity: Groups of 5 mice are given d-amphetamine sulfate 5 mg/kg sc 1 hour after oral administration of graded doses of test compound. The mice are placed in photocell activity units immediately after amphetamine administration and locomotor activity is recorded for 60 minutes. The ED50 is calculated as the dose causing a 50% reduction in locomotor activity relative to the activity of the amphetamine-treated control mice. Amphetamine antagonism at non-toxic doses appears to correlate with major tranquilizer activity in man.
# [2] = tested on: Conditioned Avoidance Response; experiment: Mouse Conditioned Avoidance Response (C.A.R.); type: in vivo; conditions: po, read-out: C.A.R. (mouse) ED50
# Method: (§2) Results given in: mg/kg po/mouse mg/kg po/rat
# (§3) Mouse and Rat Conditioned Avoidance Response: Mice and rats are trained to jump out of a pit onto a ledge to avoid shock when presented with a light and sound conditioned stimulus. The animals are tested 1, 2, and 4 hours after administration of the test compound. Three to 4 dose levels and groups of 4-8 animals/dose are used. The ED50 is the dose producing a block of the C.A.R. in 50% of the animals. Blocking of the C.A.R. at non-toxic doses appears to correlate with major tranquilizer activity in man.
# [3] = tested on: Conditioned Avoidance Response; experiment: Rat Conditioned Avoidance Response (C.A.R.); type: in vivo; conditions: po, read-out: C.A.R. (rat) ED50
# Method: as §2, §3
# [4] = tested on: Conditioned Avoidance Response; experiment: Dog Conditioned Avoidance Response (C.A.R.); type: in vivo; conditions: po; for ED50: Canis lupus familiaris, read-out: C.A.R. (dog) ED50
# Method: Results given in: mg/kg po/dog
# Dog Conditioned Avoidance Response: Dogs are trained to raise a forelimb when presented with a conditioned stimulus (light) in order to avoid an electric shock. Blocks of 10 trials are given to groups of four dogs during a pretreatment period and at 1, 2, and 4 hours after oral administration of test compound. The ED50 values are calculated as the dose causing 50% of the animals to show five or more incorrect responses. Blocking of the C.A.R. at non-toxic doses appears to correlate with major tranquilizer activity in man.
# taming = experiment: Rhesus Monkey Taming Effects; type: in vivo; conditions: po; for minimal effective dose: Macaca mulatta, read-out: Taming (monkey) MED
# Method: (§4) Results given in: mg/kg po/monkey
# Rhesus Monkey Taming Effects: Compounds are administered orally to groups of six rhesus monkeys. The behavior of the animals is then evaluated by observational means. Taming effects are determined by the ability of the observer to approach and touch the monkey. Compounds with major tranquilizer activity in man can produce a state of passive tameness in the rhesus monkey wherein it can be touched without provoking any of the threatening or aggressive behavior seen in the normal animal. The MED is the minimal oral dose at which some taming effect can be observed.
# [5] = tested on: approach-avoidance ("conflict") situation; experiment: Rat Conflict (Approach-Avoidance) Test; type: in vivo; conditions: for minimal effective dose: read-out: Conflict (rat) MED
# Method: Results given in: mg/kg po/rat
# Rat Conflict (Approach-Avoidance) Test: Food deprived rats are trained to pass from one compartment to an adjacent one to obtain food. The training consists of three exposures to the test situation on day one of the experiment. The rats are given limited (1-2 hr) free access to food in their home cages on day one and are then food deprived for at least 18 hours. On day two of the experiment, the rats are given a control exposure to the test situation followed by a second exposure after 1/2 to 1 hour in which they are shocked after crossing and eating. Groups of 6-8 rats are then dosed orally with solvent or test compound and then reexposed to the test situation after 1 or 2 hours.
# This effect is dose-related (and the MED is the minimum dose at which this effect is obtained); rats dosed with solvent only consistently show a high level of fear as evidenced by decreased mobility and absence of feeding when placed in the test situation after receiving a shock.
# approach-behavior = experiment: Rhesus Monkey Approach Effects; type: in vivo; conditions: po; for minimal effective dose: Macaca mulatta, read-out: Approach (monkey) MED
# Method: as §4
# Rhesus Monkey Approach Effects: Compounds are administered orally to groups of six rhesus monkeys. The behavior of the animals is then evaluated by observational means. […] The MED is the oral dose at which the animals show signs of decreased fear.
# Water solubility = type: physicochemical; conditions: methanesulfonate salt
structure (smiles),measurement,setting,value
"CN(C)CCCN1c2ccccc2Sc2ccc(Cl)cc21 [chlorpromazine, reference compound]",minimal effective dose,locomotor activity,3 to 10 mg/kg
same,ED50,"[1]; Mus musculus, 1 h",5 mg/kg
same,ED50,"[2]; Mus musculus, 4 h",5 mg/kg
same,ED50,"[3]; Rattus norvegicus, 4 h",10 mg/kg
same,ED50,[4]; 4 h,6 mg/kg
same,minimal effective dose,taming,10 to 30 mg/kg
same,"Conflict (rat) MED, symbol","[5]; po, rat",I
same,"Approach (monkey) MED, symbol",approach-behavior; rhesus monkey,I
"CN1C(=O)CN=C(c2ccccc2)c2cc(Cl)ccc21 [diazepam, reference compound]",minimal effective dose,locomotor activity,3 to 10 mg/kg
same,"C.A.R. (dog) ED50, symbol",[4]; dog,I
same,"Taming (monkey) MED, symbol",taming; rhesus monkey,I
same,minimal effective dose,"[5]; Rattus norvegicus, po",3 to 10 mg/kg
same,"decreased fear in the test animals, in words","[5]; rats cross to obtain food despite earlier shock, dose-related",apparent decreased fear in the test animals
same,minimal effective dose,approach-behavior,3 to 10 mg/kg
"CS(=O)(=O)O.c1ccc2c(c1)CCc1cccc3c4c(n-2c13)CCN(CC1CC1)C4 [3-(cyclopropylmethyl)-1,2,3,4,8,9-hexahydropyrido[4',3':2,3]indolo[1,7-ab][1]benzazepine methanesulfonate]",solubility,Water solubility,> 500 mg/mL
"c1ccc2c(c1)CCc1cccc3c4c(n-2c13)CCN(CC1CC1)C4 [No. 3, 3-(cyclopropylmethyl)-1,2,3,4,8,9-hexahydropyrido[4',3':2,3]indolo[1,7-ab][1]benzazepine]",minimal effective dose,locomotor activity,30 to 100 mg/kg
same,ED50,"[1]; mouse, d-amphetamine sulfate 5 mg/kg sc 1 hour after compound, 60 minutes recording",6 mg/kg
same,ED50,"[2]; mouse, tested 1, 2, and 4 hours after administration",20 mg/kg
same,ED50,"[3]; rat, tested 1, 2, and 4 hours after administration",40 mg/kg
same,ED50,"[4]; dog, 1, 2, and 4 hours after administration",> 20 mg/kg
same,minimal effective dose,taming; rhesus monkey,3 to 10 mg/kg
same,minimal effective dose,"[5]; po, rat, reexposed after 1 or 2 hours",10 to 20 mg/kg
same,minimal effective dose,approach-behavior; rhesus monkey,1 to 3 mg/kg

# Source: US3959300A, “Novel indolobenzazepine derivatives, useful as tranquilizers” (priority 1974, dated 1976)
